Test results published in patent US12686704B2, “Procoagulant peptides and use thereof” (RAMBAM MED-TECH LTD., priority 2021, dated 2026).

Assays:
[1] = target: lipidated TF, factor VIIa, factor X (Homo sapiens, UniProt P13726); test: Factor X activation assay of purified proteins (chromogenic substrate); assay type: biochemical; details: peptides at 5 μg/ml and 10 μg/ml; compared to control; FIG. 1A
Method: FIGS. 1A-1C include vertical bar graphs and thromboelastography (TEG) curves, showing that peptide 16 and peptide 16AC increase coagulation. Peptide 16 and 16AC were studied in an assay of purified proteins that included lipidated TF (4 nM), factor VIIa (40 nM), factor X (1.4 μM) and assay buffer. Factor X activated form (Xa) level was studied using a chromogenic substrate (1 mM). […] Bovine factor Xa diluted in the assay buffer was used to generate a standard curve. Without addition of TF (two right columns), no factor Xa was generated. […] (1B) A citrated pooled normal human blood sample (n=3) was left for 4 hours at room temperature in order to expose TF in bloods cells. Following this period, the peptides 16 and 16AC were added (5 μg/ml) along with calcium. […] Representative TEG curves are shown. (1C) The study presented in FIG. 1B was repeated 3 times with different pooled plasma. […] Peptide 16 (non-modified); peptide 16 comprising a C-terminal amid group (16A); peptide 16 comprising an N-terminal acetyl group (16C); and peptide 16 comprising a C-terminal amid group and an N-terminal acetyl group (16AC). In 1B: for control—SP min=11.2; R min=12.8; K min=3.8, Angle deg=52.0; and MA mm=47.9, for Peptide 16—SP min=5.2; R min=6.4; K min=2.8, Angle deg=63.3; and MA mm=50.4, and for Peptide 16AC—SP min=4.7; R min=5.6; K min=2.5, Angle deg=63.1; and MA mm=53.8.
Peptides 16, 16C, 16A and 16AC were studied in an assay of purified proteins that included lipidated TF (0.004 μM), factor VIIa (0.04 μM), factor X (1.4 μM) and assay buffer. Factor X activated form (Xa) level was studied using a chromogenic substrate (1 mM). […] Bovine factor Xa diluted in the assay buffer was used to generate a standard curve. Without addition of TF (two right columns), no factor Xa was generated.

[2] = system: Hemophilic mice (VIII-KO mice); test: Mouse-tail bleeding time model in hemophilic mice; assay type: in vivo; details: for bleeding time: 150, 225, 300, 375 μg/kg sub-cutis at the flank or topically on the tail, dose dependent, vs PBS control
Method: FIGS. 3A-3D include vertical bar graphs showing that modified heparanase procoagulant peptides of the invention decrease bleeding in hemophilic mice. Hemophilic mice (VIII-KO mice; C57BL/6 background, strain name B6;129S4-F8tm1Kaz/J) were studied. (3A) Peptides 16 or 16AC were injected subcutaneously at the flank in doses 150, 225, 300, 375 μg/kg. A mouse-tail bleeding time model was performed. The peptides were dissolved in phosphate-buffered saline (PBS). Control (0) group was injected with the vehicle phosphate buffered saline (PBS). (3D) is identical to (3A) with the exception that peptide 16 C […] and peptide 16A […] were also administered in the disclosed doses. In a similar study, the peptides were topically applied on the tail immediately following the incision of the tail at a rate of a drop every 5 seconds (3B). […] Mann-Whitney U test was used. Results represent mean±SD. *p<0.05.
Hemophilic mice (VIII-KO mice; C57BL/6 background, strain name B6;129S4-F8tm1Kaz/J) were studied. Peptides 16 or 16AC were injected sub-cutis at the flank in doses 150, 225, 300, 375 μg/kg. A mouse-tail bleeding time model was performed. The peptides were dissolved in phosphate-buffered saline (PBS). Control (0) group was injected with the vehicle phosphate buffered saline (PBS) (FIGS. 3A and 3D). In a similar study, the peptides were topically applied on the tail immediately following the incision of the tail at a rate of a drop every 5 seconds (FIG. 3B).

ICR mice [3] = test: Wound healing after full thickness skin incision in ICR mice; assay type: in vivo, mouse; details: for number of capillaries (vessels) in wound skin tissue: H&E staining at end of experiment, FIGS. 4D-4E; for wound healing (wound size): S.C. opposite to the wound on alternate days for one week, FIGS. 4A-4B
Method: FIGS. 4A-4E include images, micrographs, and graphs showing that that modified heparanase procoagulant peptides of the invention enhance wound healing. (4A) Full thickness incision of 10 mm was made in the back skin of ICR (normal, no genetic background) mice. On alternate days, for one week after surgery, peptide 16 or peptide 16AC was injected subcutaneously (S.C.) opposite to the wound at the indicated dose. Control group was injected the vehicle (PBS). […] Similar results were observed when the peptides were topically applied as a cream preparation (4C). n—number of mice. Mann-Whitney U test was used. Results represent mean±SD, **p<0.001, ***p<0.0001. (4D) At the end of the experiment the mice were sacrificed and the skin tissue from the wound site excised, and histologically analyzed using hematoxylin and eosin (H&E) staining. Representative images are shown. […] The number of capillaries presented reflects the median and range of five different fields. Mann-Whitney U test was used. Results represent mean±SD, *p<0.01, **p<0.001.
Full thickness incision of 10 mm was made in the back skin of ICR (normal, no genetic background) mice. On alternate days, for one week after surgery, peptide 16 was injected sub-cutaneous (S.C.) opposite to the wound at the indicated dose. Control group was injected the vehicle (PBS). […] Similar results were obtained when the peptides were applied topically in a cream preparation (FIG. 4C). At the end of the experiment the mice were sacrificed and the skin tissue from the wound site was analyzed using H&E staining.

ICR mice [4] = test: Immunostaining of wound skin sections of ICR mice; assay type: in vivo, mouse; details: subcutaneous opposite to the wound every other day for a week; for expression of heparanase in micro-vessels: FIG. 10A; for expression of TF in micro-vessels: FIG. 10B; for expression of TFPI-1 in micro-vessels: FIG. 10C; for expression of TFPI-2 in micro-vessels: FIG. 10D
Method: FIGS. 10A-10D include micrographs of immunohistochemistry assays showing that heparanase procoagulant peptides increase the level of heparanase, TF, TFPI and TFPI-2. Full thickness incision was made in the back skin of ICR mice. Each group included 5 mice. From the day of surgery either peptide 16 or 16AC was injected subcutaneous opposite to the wound, every other day for a week. At the end of the experiment the mice were sacrificed and the wound skin section was analyzed by immunostaining. […] Images were visualized through ×50 magnitude, with 0.82 MDC objective lens, captured with a Nikon E995 digital camera (Nikon, Tokyo, Japan), and processed with Adobe Photoshop software (Adobe Systems, San Jose, CA, USA).
Briefly, full thickness incision was made in the back skin of ICR mice. Each group included 5 mice. From the day of surgery either peptide 16 or 16AC was injected subcutaneous opposite to the wound, every other day for a week. At the end of the experiment the mice were sacrificed and the wound skin section was analyzed by immunostaining.

lipidated TF, factor VIIa, factor X, sequence (P13726 33-295): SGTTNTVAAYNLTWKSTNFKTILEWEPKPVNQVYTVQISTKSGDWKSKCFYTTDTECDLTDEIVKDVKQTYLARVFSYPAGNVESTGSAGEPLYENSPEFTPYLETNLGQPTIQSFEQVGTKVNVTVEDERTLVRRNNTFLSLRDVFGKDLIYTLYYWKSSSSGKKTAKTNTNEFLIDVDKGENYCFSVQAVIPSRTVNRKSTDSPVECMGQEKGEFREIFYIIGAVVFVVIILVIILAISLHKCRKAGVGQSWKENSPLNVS
lipidated TF, factor VIIa, factor X, sequence (P08709 61-212 partner limits assumed): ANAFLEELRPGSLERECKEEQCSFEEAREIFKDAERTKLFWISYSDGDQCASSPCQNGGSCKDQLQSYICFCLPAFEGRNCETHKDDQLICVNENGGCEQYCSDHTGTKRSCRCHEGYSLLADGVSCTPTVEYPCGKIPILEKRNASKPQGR
lipidated TF, factor VIIa, factor X, sequence (P08709 213-466 partner limits assumed): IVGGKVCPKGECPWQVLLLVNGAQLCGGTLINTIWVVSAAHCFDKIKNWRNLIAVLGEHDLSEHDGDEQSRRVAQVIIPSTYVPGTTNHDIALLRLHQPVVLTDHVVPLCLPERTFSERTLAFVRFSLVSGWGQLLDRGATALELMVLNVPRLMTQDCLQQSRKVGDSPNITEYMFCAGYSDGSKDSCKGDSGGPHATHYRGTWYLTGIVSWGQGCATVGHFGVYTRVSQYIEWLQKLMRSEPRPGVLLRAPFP

Substance | activation of factor X (factor Xa level) [1] | bleeding time [2] | number of capillaries (vessels) in wound skin tissue (ICR mice [3]) | wound healing (wound size) (ICR mice [3]) | expression of heparanase in micro-vessels (ICR mice [4]) | expression of TF in micro-vessels (ICR mice [4]) | expression of TFPI-1 in micro-vessels (ICR mice [4]) | expression of TFPI-2 in micro-vessels (ICR mice [4]) | bleeding time reduction, comparison between peptides ([2]; subcutaneous 150-375 μg/kg, FIG. 3D) | number of capillaries (vessels) in wound skin tissue (ICR mice [3]; listed as peptide 16AC)
GSKRRKLRVYLHCT [Peptide 16, peptide comprising the procoagulant domain of heparanase, non-modified] | significantly increased activation of factor X compared to control | significant decrease in bleeding time | significant increase of capillaries | significantly enhanced wound healing | significant increase in the expression | significant increase in the expression | significant increase in the expression | significant increase in the expression | – | –
acetyl-GSKRRKLRVYLHCT-amid (Ac-GSKRRKLRVYLHCT-NH2) [Peptide 16AC, peptide 16 comprising a C-terminal amid group and an N-terminal acetyl group] | significantly increased activation of factor X compared to control | significant decrease in bleeding time | significantly better effect | significantly better effect on wound size | significant increase in the expression | significant increase in the expression | significant increase in the expression | significant increase in the expression | improved bleeding reduction | significant increase of capillaries
